Six compounds from US9340600B2 (Indiana University Research and Technology Corporation, priority 2012, dated 2016) can be followed below.

What all share (format): cell-based
Test [1] concerns the target T1, glucagon receptor (Homo sapiens, UniProt P47871).
T1 construct: expressed in transfected cells; host or cells: HEK293
In words: cAMP induction, firefly luciferase-based reporter assay in HEK293 cells co-transfected with glucagon receptor. The note with it: for pEC50: EC50 at Glucagon Receptor. An excerpt: (§1) This example describes an exemplary method of testing the biological activity of the peptides of the present disclosures, which method involves assaying cAMP synthesis.

Test [2] concerns the target T2, GLP-1 receptor (Homo sapiens, UniProt P43220).
T2 construct: expressed in transfected cells; host or cells: HEK293
Put plainly: cAMP induction, firefly luciferase-based reporter assay in HEK293 cells co-transfected with GLP-1 receptor. The note with it: EC50 at GLP-1 Receptor.
Excerpt: as §1
Background: Reporter assays use an easily measured gene product as a stand-in for the process of interest.

Test [3] addresses T3, GIP receptor (Homo sapiens, UniProt P48546).
T3 construct: expressed in transfected cells; host or cells: HEK293
T3 sequence (P48546 22-466): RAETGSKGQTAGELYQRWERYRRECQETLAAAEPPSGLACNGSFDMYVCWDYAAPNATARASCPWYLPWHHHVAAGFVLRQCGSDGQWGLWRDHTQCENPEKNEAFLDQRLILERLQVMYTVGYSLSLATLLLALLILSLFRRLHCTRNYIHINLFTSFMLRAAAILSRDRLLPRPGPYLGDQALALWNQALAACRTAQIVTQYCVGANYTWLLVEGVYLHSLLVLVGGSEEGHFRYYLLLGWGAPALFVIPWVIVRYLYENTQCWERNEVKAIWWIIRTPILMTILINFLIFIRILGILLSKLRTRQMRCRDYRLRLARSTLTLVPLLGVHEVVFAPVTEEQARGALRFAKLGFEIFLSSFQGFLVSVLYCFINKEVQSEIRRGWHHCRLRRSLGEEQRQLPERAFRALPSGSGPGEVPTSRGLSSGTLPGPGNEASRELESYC
Put plainly: cAMP induction, firefly luciferase-based reporter assay in HEK293 cells co-transfected with GIP receptor. The note with it: EC50 at GIP Receptor.
Excerpt: as §1

Where [4] appears, read: Table 2, analogs of SEQ ID NO: 18 varying at positions 16-21.
Setting [5] is: Table 3, analogs of SEQ ID NO: 18 varying at position 3.

Each structure is given as a SMILES string. pEC50: −log10 of the molar value. *1 amine or outer side, *2 acyl side, *3 side chain or, on linkers, in order; H or OH if unused. Where a SMILES comes first, the peptide text is derived from it. Side-chain parts run from the residue outwards. [ ]: non-standard residue; d: D form. The star is where a group is joined. γGlu = O=C(O)[C@H](CCC(=O)[*:2])N[*:1]; Palmitoyl = CCCCCCCCCCCCCCCC(=O)*; Aib = CC(C)(N)C(=O)O

T1 sequence (P47871 26-477): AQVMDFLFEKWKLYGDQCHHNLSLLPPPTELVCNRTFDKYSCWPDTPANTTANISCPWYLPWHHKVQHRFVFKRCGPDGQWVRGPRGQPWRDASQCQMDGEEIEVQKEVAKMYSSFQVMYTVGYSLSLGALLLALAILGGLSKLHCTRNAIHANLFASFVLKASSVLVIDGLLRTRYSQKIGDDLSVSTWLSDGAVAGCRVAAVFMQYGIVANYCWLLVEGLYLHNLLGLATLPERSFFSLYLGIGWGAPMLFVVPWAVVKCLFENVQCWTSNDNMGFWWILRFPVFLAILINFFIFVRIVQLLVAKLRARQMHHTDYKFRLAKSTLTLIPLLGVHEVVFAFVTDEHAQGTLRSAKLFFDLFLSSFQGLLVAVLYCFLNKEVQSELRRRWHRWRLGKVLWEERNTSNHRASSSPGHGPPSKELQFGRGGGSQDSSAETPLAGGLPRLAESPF
T2 sequence (P43220 24-463): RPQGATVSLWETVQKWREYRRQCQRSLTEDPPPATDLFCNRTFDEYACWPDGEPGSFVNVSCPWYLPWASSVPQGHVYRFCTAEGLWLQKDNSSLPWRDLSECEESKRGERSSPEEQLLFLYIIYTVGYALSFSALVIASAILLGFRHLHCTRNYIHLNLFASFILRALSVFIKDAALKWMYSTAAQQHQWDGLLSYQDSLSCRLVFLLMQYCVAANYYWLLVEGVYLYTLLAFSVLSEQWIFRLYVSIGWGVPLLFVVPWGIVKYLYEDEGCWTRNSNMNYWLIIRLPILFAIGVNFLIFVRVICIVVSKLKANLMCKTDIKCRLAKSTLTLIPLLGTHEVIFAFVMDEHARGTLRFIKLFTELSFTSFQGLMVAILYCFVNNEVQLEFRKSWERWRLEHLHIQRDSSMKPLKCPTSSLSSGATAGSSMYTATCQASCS

One may read the pEC50 as the negative decadic logarithm of the EC50, by convention in mol/L. Low readings indicate a high EC50, high ones a low EC50. Regarding `CCCCCCCCCCCCCCCC(=O)N[C@@H](CCC(=O)NCCCC[C@H](NC(=O)[C@H](CC(=O)O)NC(=O)[C@H](CO)NC(=O)[C@@H](NC(=O)[C@H](Cc1ccccc1)NC(=O)[C@@H](NC(=O)CNC(=O)[C@H](CCC(N)=O)NC(=O)C(C)(C)NC(=O)[C@@H](N)Cc1c[nH]cn1)[C@@H](C)O)[C@@H](C)O)C(=O)N[C@@H](CO)C(=O)N[C@@H](CCCCN)C(=O)N[C@@H](Cc1ccc(O)cc1)C(=O)N[C@@H](CC(C)C)C(=O)N[C@@H](CC(=O)O)C(=O)N[C@@H](CCC(=O)O)C(=O)N[C@@H](CCCNC(=N)N)C(=O)N[C@@H](C)C(=O)N[C@@H](C)C(=O)N[C@@H](Cc1c[nH]cn1)C(=O)N[C@@H](CC(=O)O)C(=O)N[C@@H](Cc1ccccc1)C(=O)N[C@H](C(=O)N[C@@H](CCC(N)=O)C(=O)N[C@@H](Cc1c[nH]c2ccccc12)C(=O)N[C@@H](CC(C)C)C(=O)N[C@@H](CC(C)C)C(=O)N[C@@H](CC(=O)O)C(=O)NCC(=O)NCC(=O)N1CCC[C@H]1C(=O)N[C@@H](CO)C(=O)N[C@@H](CO)C(=O)NCC(=O)N[C@@H](C)C(=O)N1CCC[C@H]1C(=O)N1CCC[C@H]1C(=O)N1CCC[C@H]1C(=O)N[C@@H](CO)C(N)=O)C(C)C)C(=O)O` [compound 19] (H-H[Aib]QGTFTSDK([γGlu-Palmitoyl])SKYLDERAAHDFVQWLLDGGPSSGAPPPS-NH2), the pEC50 is 10.92 in test [1] (setting [4]), 10.74 in test [2] (setting [4]) and 10.82 in test [3] (setting [4]).

As for `CCCCCCCCCCCCCCCC(=O)N[C@@H](CCC(=O)NCCCC[C@H](NC(=O)[C@H](CC(=O)O)NC(=O)[C@H](CO)NC(=O)[C@@H](NC(=O)[C@H](Cc1ccccc1)NC(=O)[C@@H](NC(=O)CNC(=O)[C@@H](NC(=O)C(C)(C)NC(=O)[C@@H](N)Cc1c[nH]cn1)[C@@H](C)CC)[C@@H](C)O)[C@@H](C)O)C(=O)N[C@@H](CO)C(=O)N[C@@H](CCCCN)C(=O)N[C@@H](Cc1ccc(O)cc1)C(=O)N[C@@H](CC(C)C)C(=O)N[C@@H](CCC(=O)O)C(=O)N[C@@H](CCC(=O)O)C(=O)N[C@@H](CCCNC(=N)N)C(=O)N[C@@H](C)C(=O)N[C@@H](C)C(=O)N[C@@H](CCC(N)=O)C(=O)N[C@@H](CCC(=O)O)C(=O)N[C@@H](Cc1ccccc1)C(=O)N[C@H](C(=O)N[C@@H](CCC(N)=O)C(=O)N[C@@H](Cc1c[nH]c2ccccc12)C(=O)N[C@@H](CC(C)C)C(=O)N[C@@H](CC(C)C)C(=O)N[C@@H](CCC(=O)O)C(=O)NCC(=O)NCC(=O)N1CCC[C@H]1C(=O)N[C@@H](CO)C(=O)N[C@@H](CO)C(=O)NCC(=O)N[C@@H](C)C(=O)N1CCC[C@H]1C(=O)N1CCC[C@H]1C(=O)N1CCC[C@H]1C(=O)N[C@@H](CO)C(N)=O)C(C)C)C(=O)O` [compound 30] (H-H[Aib]IGTFTSDK([γGlu-Palmitoyl])SKYLEERAAQEFVQWLLEGGPSSGAPPPS-NH2), in test [1] (setting [5]), the “EC50 at Glucagon Receptor” value is “Not active”. For the same compound, the negative logarithm of the EC50 (pEC50) in test [2] (setting [5]) is 9.60; in test [3] (setting [5]), 9.37.

`CCCCCCCCCCCCCCCC(=O)N[C@@H](CCC(=O)NCCCC[C@H](NC(=O)[C@H](CC(=O)O)NC(=O)[C@H](CO)NC(=O)[C@@H](NC(=O)[C@H](Cc1ccccc1)NC(=O)[C@@H](NC(=O)CNC(=O)[C@H](CCC(N)=O)NC(=O)C(C)(C)NC(=O)[C@@H](N)Cc1c[nH]cn1)[C@@H](C)O)[C@@H](C)O)C(=O)N[C@@H](CO)C(=O)N[C@@H](CCCCN)C(=O)N[C@@H](Cc1ccc(O)cc1)C(=O)N[C@@H](CC(C)C)C(=O)N[C@@H](CC(=O)O)C(=O)N[C@@H](CCC(=O)O)C(=O)N[C@@H](CCCNC(=N)N)C(=O)N[C@@H](C)C(=O)N[C@@H](C)C(=O)NC(C)(C)C(=O)N[C@@H](CCC(=O)O)C(=O)N[C@@H](Cc1ccccc1)C(=O)N[C@H](C(=O)N[C@@H](CCC(N)=O)C(=O)N[C@@H](Cc1c[nH]c2ccccc12)C(=O)N[C@@H](CC(C)C)C(=O)N[C@@H](CC(C)C)C(=O)N[C@@H](CC(=O)O)C(=O)NCC(=O)NCC(=O)N1CCC[C@H]1C(=O)N[C@@H](CO)C(=O)N[C@@H](CO)C(=O)NCC(=O)N[C@@H](C)C(=O)N1CCC[C@H]1C(=O)N1CCC[C@H]1C(=O)N1CCC[C@H]1C(=O)N[C@@H](CO)C(N)=O)C(C)C)C(=O)O` [compound 21] (H-H[Aib]QGTFTSDK([γGlu-Palmitoyl])SKYLDERAA[Aib]EFVQWLLDGGPSSGAPPPS-NH2; N-terminus assumed): the results for the pEC50 in test [1] (setting [4]), in test [2] (setting [4]) and in test [3] (setting [4]) were 11.70, 11.40 and 12.00, respectively.

On to `CCCCCCCCCCCCCCCC(=O)N[C@@H](CCC(=O)NCCCC[C@H](NC(=O)[C@H](CC(=O)O)NC(=O)[C@H](CO)NC(=O)[C@@H](NC(=O)[C@H](Cc1ccccc1)NC(=O)[C@@H](NC(=O)CNC(=O)[C@H](CCC(N)=O)NC(=O)C(C)(C)NC(=O)[C@@H](N)Cc1c[nH]cn1)[C@@H](C)O)[C@@H](C)O)C(=O)N[C@@H](CO)C(=O)N[C@@H](CCCCN)C(=O)N[C@@H](Cc1ccc(O)cc1)C(=O)N[C@@H](CC(C)C)C(=O)N[C@@H](CC(=O)O)C(=O)N[C@@H](CCC(=O)O)C(=O)N[C@@H](CCCNC(=N)N)C(=O)N[C@@H](C)C(=O)NC(C)(C)C(=O)N[C@@H](C)C(=O)N[C@@H](CCC(=O)O)C(=O)N[C@@H](Cc1ccccc1)C(=O)N[C@H](C(=O)N[C@@H](CCC(N)=O)C(=O)N[C@@H](Cc1c[nH]c2ccccc12)C(=O)N[C@@H](CC(C)C)C(=O)N[C@@H](CC(C)C)C(=O)N[C@@H](CC(=O)O)C(=O)NCC(=O)NCC(=O)N1CCC[C@H]1C(=O)N[C@@H](CO)C(=O)N[C@@H](CO)C(=O)NCC(=O)N[C@@H](C)C(=O)N1CCC[C@H]1C(=O)N1CCC[C@H]1C(=O)N1CCC[C@H]1C(=O)N[C@@H](CO)C(N)=O)C(C)C)C(=O)O` [compound 23] (H-H[Aib]QGTFTSDK([γGlu-Palmitoyl])SKYLDERA[Aib]AEFVQWLLDGGPSSGAPPPS-NH2), for which the negative logarithm of the EC50 (pEC50) is 9.58 in test [1] (setting [4]), 11.15 in test [2] (setting [4]) and 10.89 in test [3] (setting [4]).

With `CCCCCCCCCCCCCCCC(=O)N[C@@H](CCC(=O)NCCCC[C@H](NC(=O)[C@H](CC(=O)O)NC(=O)[C@H](CO)NC(=O)[C@@H](NC(=O)[C@H](Cc1ccccc1)NC(=O)[C@@H](NC(=O)CNC(=O)[C@H](CCC(N)=O)NC(=O)C(C)(C)NC(=O)[C@@H](N)Cc1c[nH]cn1)[C@@H](C)O)[C@@H](C)O)C(=O)N[C@@H](CO)C(=O)N[C@@H](CCCCN)C(=O)N[C@@H](Cc1ccc(O)cc1)C(=O)N[C@@H](CC(C)C)C(=O)N[C@@H](CC(=O)O)C(=O)N[C@@H](CCC(=O)O)C(=O)N[C@@H](CCC(N)=O)C(=O)N[C@@H](C)C(=O)N[C@@H](C)C(=O)NC(C)(C)C(=O)N[C@@H](CCC(=O)O)C(=O)N[C@@H](Cc1ccccc1)C(=O)N[C@H](C(=O)N[C@@H](CCC(N)=O)C(=O)N[C@@H](Cc1c[nH]c2ccccc12)C(=O)N[C@@H](CC(C)C)C(=O)N[C@@H](CC(C)C)C(=O)N[C@@H](CC(=O)O)C(=O)NCC(=O)NCC(=O)N1CCC[C@H]1C(=O)N[C@@H](CO)C(=O)N[C@@H](CO)C(=O)NCC(=O)N[C@@H](C)C(=O)N1CCC[C@H]1C(=O)N1CCC[C@H]1C(=O)N1CCC[C@H]1C(=O)N[C@@H](CO)C(N)=O)C(C)C)C(=O)O` [compound 26] (H-H[Aib]QGTFTSDK([γGlu-Palmitoyl])SKYLDEQAA[Aib]EFVQWLLDGGPSSGAPPPS-NH2), the results for the negative-log EC50 (pEC50) in test [1] (setting [4]), in test [2] (setting [4]) and in test [3] (setting [4]) were 11.40, 12.00 and 12.00, respectively.

Consider `CCCCCCCCCCCCCCCC(=O)N[C@@H](CCC(=O)NCCCC[C@H](NC(=O)[C@H](CC(=O)O)NC(=O)[C@H](CO)NC(=O)[C@@H](NC(=O)[C@H](Cc1ccccc1)NC(=O)[C@@H](NC(=O)CNC(=O)[C@H](CCC(=O)O)NC(=O)C(C)(C)NC(=O)[C@@H](N)Cc1c[nH]cn1)[C@@H](C)O)[C@@H](C)O)C(=O)N[C@@H](CO)C(=O)N[C@@H](CCCCN)C(=O)N[C@@H](Cc1ccc(O)cc1)C(=O)N[C@@H](CC(C)C)C(=O)N[C@@H](CCC(=O)O)C(=O)N[C@@H](CCC(=O)O)C(=O)N[C@@H](CCCNC(=N)N)C(=O)N[C@@H](C)C(=O)N[C@@H](C)C(=O)N[C@@H](CCC(N)=O)C(=O)N[C@@H](CCC(=O)O)C(=O)N[C@@H](Cc1ccccc1)C(=O)N[C@H](C(=O)N[C@@H](CCC(N)=O)C(=O)N[C@@H](Cc1c[nH]c2ccccc12)C(=O)N[C@@H](CC(C)C)C(=O)N[C@@H](CC(C)C)C(=O)N[C@@H](CCC(=O)O)C(=O)NCC(=O)NCC(=O)N1CCC[C@H]1C(=O)N[C@@H](CO)C(=O)N[C@@H](CO)C(=O)NCC(=O)N[C@@H](C)C(=O)N1CCC[C@H]1C(=O)N1CCC[C@H]1C(=O)N1CCC[C@H]1C(=O)N[C@@H](CO)C(N)=O)C(C)C)C(=O)O` [compound 29] (H-H[Aib]EGTFTSDK([γGlu-Palmitoyl])SKYLEERAAQEFVQWLLEGGPSSGAPPPS-NH2; N-terminus assumed), for which the negative-log EC50 (pEC50) in test [1] (setting [5]) was 8.82; in test [2] (setting [5]) it was 11.10; in test [3] (setting [5]) it was 10.77.
